Test results: ChEMBL document CHEMBL1201862, “PubChem BioAssay data set” (2004)
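Interpolation was linear, between the two tested concentrations surrounding the appropriate level; five concentrations were tested over 48 hours in 96-well plates. GI50 is the concentration that inhibits growth by half.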 The source made the active and inactive calls. Cut-off read from the data, not from the text of the source: active = GI50 up to about 1.1 µM and inactive = higher.

Tests used:
Test in all cases: NCI tumour cell line growth inhibition, 48 h
MDA-N = tested on: MDA-N
SK-MEL-2 = tested on: SK-MEL-2
KM12 = tested on: KM12
MCF7 = tested on: MCF7
MOLT-4 = tested on: MOLT-4
RPMI-8226 = tested on: RPMI-8226
M14 = tested on: M14
HCT-116 = tested on: HCT-116
OVCAR-3 = tested on: OVCAR-3
TK-10 = tested on: TK-10
OVCAR-4 = tested on: OVCAR-4
HCT-15 = tested on: HCT-15
UACC-62 = tested on: UACC-62
SK-MEL-28 = tested on: SK-MEL-28
DU-145 = tested on: DU-145
HCC 2998 = tested on: HCC 2998
NCI-H522 = tested on: NCI-H522
LOX IMVI = tested on: LOX IMVI
SF-295 = tested on: SF-295
A498 = tested on: A498

| SMILES | GI50 (MDA-N) | GI50 (SK-MEL-2) | GI50 (KM12) | GI50 (MCF7) | GI50 (MOLT-4) | GI50 (RPMI-8226) | GI50 (M14) | GI50 (HCT-116) | GI50 (OVCAR-3) | GI50 (TK-10) | GI50 (OVCAR-4) | GI50 (HCT-15) [µM] | GI50 (UACC-62) | GI50 (SK-MEL-28) | GI50 (DU-145) | GI50 (HCC 2998) | GI50 (NCI-H522) | GI50 (LOX IMVI) | GI50 (SF-295) | GI50 (A498) |
| --- | --- | --- | --- | --- | --- | --- | --- | --- | --- | --- | --- | --- | --- | --- | --- | --- | --- | --- | --- | --- |
| CC[C@@H]1CC[C@@H]2[C@H](CC[C@]3(C)[C@@H](OC(C)=O)CC[C@@H]23)[C@H]1C(=O)OC | 19.5 µM (inactive) | 20.1 µM (inactive) | 22.5 µM (inactive) | 25 µM (inactive) | 19.5 µM (inactive) | 19.6 µM (inactive) | 19.6 µM (inactive) | 17.9 µM (inactive) | 19.4 µM (inactive) | > 100 µM (inactive) | 19.9 µM (inactive) | 22 | 20.1 µM (inactive) | 32.2 µM (inactive) | 27.4 µM (inactive) | 97.9 µM (inactive) | 27.2 µM (inactive) | 20 µM (inactive) | 21 µM (inactive) | > 100 µM (inactive) |
| CCCCOCCOC1=CC(=O)c2c(O)ccc(O)c2C1=O | 0.185 µM (active) | 1.69 µM (inactive) | 1.75 µM (inactive) | 1.31 µM (inactive) | 1.28 µM (inactive) | 2.91 µM (inactive) | 1 µM (active) | 1.49 µM (inactive) | 1.67 µM (inactive) | 3.1 µM (inactive) | 1.92 µM (inactive) | – | 1.51 µM (inactive) | 1.62 µM (inactive) | 1.78 µM (inactive) | 1.88 µM (inactive) | 1.58 µM (inactive) | 1.73 µM (inactive) | 1.66 µM (inactive) | 1.64 µM (inactive) |
| CN(C)c1ccc(/C=N/c2ccc(-c3nc4ccccc4s3)cc2)cc1 | 34.5 µM (inactive) | 22.9 µM (inactive) | 24.9 µM (inactive) | < 0.01 µM (active) | 23.2 µM (inactive) | 25.6 µM (inactive) | 41.1 µM (inactive) | 33 µM (inactive) | 15.9 µM (inactive) | 30.1 µM (inactive) | 58.7 µM (inactive) | 32.1 | 8.59 µM (inactive) | 48.9 µM (inactive) | 35.6 µM (inactive) | 20.8 µM (inactive) | 18.1 µM (inactive) | 33.3 µM (inactive) | 4.54 µM (inactive) | 10.2 µM (inactive) |
| Oc1c([Si](c2ccccc2)(c2ccccc2)c2ccccc2)cc2ccccc2c1-c1c(O)c([Si](c2ccccc2)(c2ccccc2)c2ccccc2)cc2ccccc12 | > 100 µM (inactive) | > 100 µM (inactive) | > 100 µM (inactive) | > 100 µM (inactive) | 42.2 µM (inactive) | > 100 µM (inactive) | > 100 µM (inactive) | – | – | > 100 µM (inactive) | > 100 µM (inactive) | > 100 | > 100 µM (inactive) | > 100 µM (inactive) | > 100 µM (inactive) | > 100 µM (inactive) | > 100 µM (inactive) | > 100 µM (inactive) | > 100 µM (inactive) | > 100 µM (inactive) |
| CCOP(=O)(OCC)/C(C#N)=C/c1cnc(C)[nH]1 | > 100 µM (inactive) | > 100 µM (inactive) | > 100 µM (inactive) | > 100 µM (inactive) | > 100 µM (inactive) | > 100 µM (inactive) | > 100 µM (inactive) | > 100 µM (inactive) | > 100 µM (inactive) | > 100 µM (inactive) | > 100 µM (inactive) | > 100 | > 100 µM (inactive) | > 100 µM (inactive) | > 100 µM (inactive) | > 100 µM (inactive) | > 100 µM (inactive) | > 100 µM (inactive) | > 100 µM (inactive) | > 100 µM (inactive) |
| O=C(O)CCCCn1cnc2c(S)ncnc21 | > 100 µM (inactive) | > 100 µM (inactive) | > 100 µM (inactive) | > 100 µM (inactive) | > 100 µM (inactive) | > 100 µM (inactive) | > 100 µM (inactive) | > 100 µM (inactive) | > 100 µM (inactive) | > 100 µM (inactive) | > 100 µM (inactive) | > 100 | > 100 µM (inactive) | > 100 µM (inactive) | > 100 µM (inactive) | > 100 µM (inactive) | > 100 µM (inactive) | > 100 µM (inactive) | > 100 µM (inactive) | > 100 µM (inactive) |
| COC(=O)/N=[N+](\[O-])C(c1ccc(Cl)cc1)c1ccc(Cl)cc1 | 47.5 µM (inactive) | 34.1 µM (inactive) | 32.2 µM (inactive) | 33.9 µM (inactive) | 39.7 µM (inactive) | 21.9 µM (inactive) | 31.3 µM (inactive) | 23.8 µM (inactive) | 57.7 µM (inactive) | 36.1 µM (inactive) | 42.6 µM (inactive) | 30.8 | 36.4 µM (inactive) | 50.4 µM (inactive) | 29.1 µM (inactive) | 32 µM (inactive) | 32.6 µM (inactive) | 15.7 µM (inactive) | – | 31.8 µM (inactive) |
| O=C1OC(C2OC(=O)c3cc(O)c(O)c(O)c3-c3c(O)c(O)c4oc(=O)c5c(c(O)c(O)c6oc(=O)c3c4c65)-c3c(cc(O)c(O)c3O)C(=O)OCC2O)C2OC(=O)c3c(c(O)c(O)c(O)c3[C@H]2O)-c2c1cc(O)c(O)c2O (stereo partly drawn) | 21.2 µM (inactive) | 31.6 µM (inactive) | 15.2 µM (inactive) | 6.05 µM (inactive) | 22.6 µM (inactive) | 28.5 µM (inactive) | 16.4 µM (inactive) | 17.3 µM (inactive) | 24.4 µM (inactive) | – | 16.1 µM (inactive) | 13.2 | 22.9 µM (inactive) | 98.2 µM (inactive) | 30.3 µM (inactive) | 43.6 µM (inactive) | 17.1 µM (inactive) | 11.5 µM (inactive) | 16.6 µM (inactive) | > 100 µM (inactive) |
| Cc1ccc(S(=O)(=O)N2CC(CCN)c3ccccc32)cc1 (stereo not drawn) | 0.883 µM (active) | 4.28 µM (inactive) | 6.03 µM (inactive) | 1.47 µM (inactive) | 28 µM (inactive) | 6.01 µM (inactive) | 2.29 µM (inactive) | 2.27 µM (inactive) | 3.36 µM (inactive) | 7.89 µM (inactive) | 17.5 µM (inactive) | 4.05 | 3.68 µM (inactive) | 5.16 µM (inactive) | 3.87 µM (inactive) | 4.76 µM (inactive) | 5.87 µM (inactive) | 2.99 µM (inactive) | 4.56 µM (inactive) | 10.7 µM (inactive) |
| Cc1cn(C2CC(N=[N+]=[N-])C(COP(=O)(O)OCC3OC(n4cc(F)c(=O)[nH]c4=O)CC3O)O2)c(=O)[nH]c1=O (stereo not drawn) | 38.3 µM (inactive) | > 100 µM (inactive) | > 26.4 µM (inactive) | 0.137 µM (active) | 2.22 µM (inactive) | 0.311 µM (active) | 10.9 µM (inactive) | 4.21 µM (inactive) | > 100 µM (inactive) | > 100 µM (inactive) | – | > 100 | 8.34 µM (inactive) | > 77.4 µM (inactive) | 4.1 µM (inactive) | > 100 µM (inactive) | > 100 µM (inactive) | 0.653 µM (active) | 0.337 µM (active) | 3.37 µM (inactive) |
| N#Cc1nc(/C=C/c2ccccc2)oc1N | > 100 µM (inactive) | > 100 µM (inactive) | > 100 µM (inactive) | > 100 µM (inactive) | 13.7 µM (inactive) | 34.5 µM (inactive) | > 100 µM (inactive) | > 100 µM (inactive) | > 100 µM (inactive) | > 100 µM (inactive) | 20.7 µM (inactive) | > 100 | – | > 100 µM (inactive) | > 100 µM (inactive) | > 100 µM (inactive) | 8.2 µM (inactive) | > 100 µM (inactive) | > 100 µM (inactive) | > 100 µM (inactive) |
| CC(=O)O[C@H]1C(=O)[C@@]2(C)[C@H]([C@H](OC(=O)c3ccccc3)[C@]3(O)C[C@H](OC(=O)[C@H](O)[C@@H](NC(=O)CC(C)C)c4ccccc4)C(C)=C1C3(C)C)[C@]1(OC(C)=O)CO[C@@H]1C[C@@H]2O | 0.0906 µM (active) | 0.00239 µM (active) | – | < 0.001 µM (active) | 0.00149 µM (active) | < 0.001 µM (active) | – | 0.00167 µM (active) | – | 0.0383 µM (active) | > 10 µM (inactive) | 0.547 | 0.00475 µM (active) | 0.00318 µM (active) | 0.0232 µM (active) | 0.00303 µM (active) | 0.00247 µM (active) | 0.00619 µM (active) | 0.0445 µM (active) | 0.247 µM (active) |
| C=CCNC(=S)N/C=C(\C#N)C(N)=O | > 100 µM (inactive) | > 100 µM (inactive) | > 100 µM (inactive) | > 100 µM (inactive) | > 100 µM (inactive) | > 100 µM (inactive) | > 100 µM (inactive) | > 100 µM (inactive) | > 100 µM (inactive) | – | > 100 µM (inactive) | > 100 | > 100 µM (inactive) | > 100 µM (inactive) | > 100 µM (inactive) | > 100 µM (inactive) | > 100 µM (inactive) | > 100 µM (inactive) | > 100 µM (inactive) | > 100 µM (inactive) |
| COc1cccc(C2c3cc4c(cc3OC(Nc3ccccc3)C2C)OCO4)c1OC (stereo not drawn) | 34.8 µM (inactive) | 4.55 µM (inactive) | 4.02 µM (inactive) | 6.89 µM (inactive) | 1.81 µM (inactive) | 1.64 µM (inactive) | 67.6 µM (inactive) | 3.52 µM (inactive) | 5.36 µM (inactive) | 6.46 µM (inactive) | – | 4.37 | 9.55 µM (inactive) | 41.3 µM (inactive) | 7.08 µM (inactive) | 74.1 µM (inactive) | 3.36 µM (inactive) | 3.77 µM (inactive) | 5.55 µM (inactive) | 11.5 µM (inactive) |
